Data published in patent publication US9210931B2, “Pesticidal compositions and processes related thereto” (Dow AgroSciences LLC, priority 2010, dated 2015).

Columns and labels:
[1] = test system: Sweetpotato whitefly-crawler (Bemisia tabaci) (BEMITA); assay: Insecticidal test for sweetpotato whitefly-crawler in foliar spray assay on cotton plants; type: in vivo; conditions: 200 ppm foliar spray on cotton plants, graded after 8-9 days, Abbott-corrected % control, read-out: BEMITA % Ctrl @ 200 ppm
Procedure: Cotton plants grown in 3-inch pots, with 1 small (3-5 cm) true leaf, were used as test substrate. The plants were placed in a room with whitefly adults. Adults were allowed to deposit eggs for 2-3 days. After a 2-3 day egg-laying period, plants were taken from the adult whitefly room. Adults were blown off leaves using a hand-held Devilbiss sprayer (23 psi). Plants with egg infestation (100-300 eggs per plant) were placed in a holding room for 5-6 days at 82° F. and 50% RH for egg hatch and crawler stage to develop. Four cotton plants were used for each treatment. Compounds (2 mg) were dissolved in 1 mL of acetone solvent, forming stock solutions of 2000 ppm. The stock solutions were diluted 10× with 0.025% Tween 20 in H2O to obtain a test solution at 200 ppm. A hand-held Devilbiss sprayer was used for spraying a solution to both sides of cotton leaf until runoff. Reference plants (solvent check) were sprayed with the diluent only. Treated plants were held in a holding room for 8-9 days at approximately 82° F. and 50% RH prior to grading. Evaluation was conducted by counting the number of live nymphs per plant under a microscope. Insecticidal activity was measured by using Abbott's correction formula and presented in “Table 4. Biological Data for GPA (MYZUPE) and sweetpotato whitefly-crawler (BEMITA)” (see column “BEMITA”): Corrected % Control=100*(X−Y)/X • where • X=No. of live nymphs on solvent check plants • Y=No. of live nymphs on treated plants Pesticidally Acceptable Acid Addition Salts, Salt Derivatives, Solvates, Ester Derivatives, Polymorphs, Isotopes and Radionuclides

[2] = test system: Green Peach Aphid (Myzus persicae) (MYZUPE); assay: Bioassay on green peach aphid (GPA), foliar spray on cabbage seedlings; type: in vivo; conditions: 72 h, 200 ppm foliar spray on cabbage seedlings, graded after three days, Abbott-corrected % control, read-out: MYZUPE % Ctrl @ 200 ppm
Procedure: Certain molecules disclosed in this document were tested against GPA using procedures described in the following example. In the reporting of the results, the “Table 3: GPA (MYZUPE) and sweetpotato whitefly-crawler (BEMITA) Rating Table” was used (See Table Section).
Cabbage seedlings grown in 3-inch pots, with 2-3 small (3-5 cm) true leaves, were used as test substrate. The seedlings were infested with 20-50 GPA (wingless adult and nymph stages) one day prior to chemical application. Four pots with individual seedlings were used for each treatment. Test compounds (2 mg) were dissolved in 2 mL of acetone/methanol (1:1) solvent, forming stock solutions of 1000 ppm test compound. The stock solutions were diluted 5× with 0.025% Tween 20 in H2O to obtain the solution at 200 ppm test compound. A hand-held aspirator-type sprayer was used for spraying a solution to both sides of […] leaves until runoff. Reference plants (solvent check) were sprayed with the diluent only containing 20% by volume of acetone/methanol (1:1) solvent. Treated plants were held in a holding room for three days at approximately 25° C. and ambient relative humidity (RH) prior to grading. Evaluation was conducted by counting the number of live aphids per plant under a microscope. Percent Control was measured by using Abbott's correction formula (W. S. Abbott, “A Method of Computing the Effectiveness of an Insecticide” J. Econ. Entomol. 18 (1925), pp. 265-267) as follows. Corrected % Control=100*(X−Y)/X • where • X=No. of live aphids on solvent check plants and • Y=No. of live aphids on treated plants
Biological Data for GPA (MYZUPE) and sweetpotato whitefly-crawler (BEMITA)” (See Table Section).

Q: What does the source list for `CC(=O)Nn1cc(-c2cccnc2)nc1C` [Compound 5]?
A: inhibition at 200 ppm [1]: 80 to 100%; inhibition at 200 ppm [2]: 80 to 100%

Q: Which inhibition at 200 ppm [1] does the source give for `CCN(C(=O)CCSC)n1cc(-c2cccnc2)nc1C` [Compound 18] here?
A: The inhibition at 200 ppm was 80 to 100%.

Q: And the inhibition at 200 ppm [2]?
A: The inhibition at 200 ppm was 80 to 100%.

Q: Which inhibition at 200 ppm [1] does the source give for `CSCCC(=O)N(CC1CC1)n1cc(-c2cncc(F)c2)nc1C` [Compound 27] here?
A: Its inhibition at 200 ppm is 80 to 100%.

Q: What about the inhibition at 200 ppm [2] of the same compound?
A: Its inhibition at 200 ppm is 0 to 80%.

Q: Which results are given for `CSCCC(=O)N(CC1CC1)n1cc(-c2cccnc2)nc1C` [Compound 21]?
A: inhibition at 200 ppm [1]: 80 to 100%; inhibition at 200 ppm [2]: 0 to 80%

Q: Which inhibition at 200 ppm [1] does the source give for `CC(=O)N(C)n1cc(-c2cccnc2)nc1C` [Compound 6] here?
A: The inhibition at 200 ppm was 80 to 100%.

Q: What about the inhibition at 200 ppm [2] of the same compound?
A: The inhibition at 200 ppm was 0 to 80%.

Q: What does the source list for `CCCCC(=O)N(CC)n1cc(-c2cccnc2)nc1C` [Compound 19]?
A: inhibition at 200 ppm [1]: 80 to 100%; inhibition at 200 ppm [2]: 0 to 80%

Q: With `Cc1nc(-c2cccnc2)cn1N(C)C(=O)C(C)(C)C` [Compound 7] as the compound, how does the inhibition at 200 ppm [1] read?
A: The inhibition at 200 ppm was 80 to 100%.

Q: And the inhibition at 200 ppm [2]?
A: Its inhibition at 200 ppm is 0 to 80%.

Q: What does the source list for `CCN(C(=O)C(C)C)n1cc(-c2cccnc2)nc1C` [Compound 17]?
A: inhibition at 200 ppm [1]: 0 to 80%; inhibition at 200 ppm [2]: 0 to 80%

Q: With `Cc1nc(-c2cccnc2)cn1N(C)C(=O)CC(F)(F)F` [Compound 8] as the compound, how does the inhibition at 200 ppm [1] read?
A: Its inhibition at 200 ppm is 80 to 100%.

Q: What about the melting point of the same compound?
A: The melting point was 130.9 to 131.5 °C.

Q: What about the inhibition at 200 ppm [2] of the same compound?
A: The inhibition at 200 ppm was 0 to 80%.

Q: For `CSC(C)CC(=O)N(C)n1cc(-c2cccnc2)nc1C` (centres unmarked) [Compound 2, N-Methyl-N-(2-methyl-4-pyridin-3-yl-imidazol-1-yl)-3-methylsulfanyl-butramide], which inhibition at 200 ppm [1] is on record?
A: Its inhibition at 200 ppm is less than 0%.

Q: What about the inhibition at 200 ppm [2] of the same compound?
A: The inhibition at 200 ppm was 0 to 80%.

Q: With `CCCCC(=O)N(C)n1cc(-c2cccnc2)nc1C` [Compound 9] as the compound, how does the inhibition at 200 ppm [1] read?
A: The inhibition at 200 ppm was 80 to 100%.

Q: What about the inhibition at 200 ppm [2] of the same compound?
A: The inhibition at 200 ppm was 0 to 80%.

Q: For `Cc1nc(-c2cccnc2)cn1N(CC1CC1)C(=O)C(C)(C)C` [Compound 11], which inhibition at 200 ppm [1] is on record?
A: Its inhibition at 200 ppm is 80 to 100%.

Q: What about the inhibition at 200 ppm [2] of the same compound?
A: Its inhibition at 200 ppm is 0 to 80%.

Q: Which inhibition at 200 ppm [1] does the source give for `Cc1nc(-c2cccnc2)cn1N(C)C(=O)OC(C)(C)C` [Compound 3, Methyl-(2-methyl-4-pyridin-3-yl-imidazol-1-yl)-carbamic acid tert-butyl ester] here?
A: The inhibition at 200 ppm was 0 to 80%.

Q: And the inhibition at 200 ppm [2]?
A: Its inhibition at 200 ppm is 0 to 80%.

Q: Which inhibition at 200 ppm [1] does the source give for `CCN(C(=O)CC(F)(F)F)n1cc(-c2cccnc2)nc1C` [Compound 14] here?
A: The inhibition at 200 ppm was less than 0%.

Q: And the inhibition at 200 ppm [2]?
A: Its inhibition at 200 ppm is less than 0%.

Q: With `Cc1nc(-c2cccnc2)c(C)n1NC(=O)OC(C)(C)C` [Compound 4, (2,5-Dimethyl-4-pyridin-3-yl-imidazol-1-yl)-carbamic acid tert-butyl ester] as the compound, how does the inhibition at 200 ppm [1] read?
A: Its inhibition at 200 ppm is 0 to 80%.

Q: What about the inhibition at 200 ppm [2] of the same compound?
A: The inhibition at 200 ppm was less than 0%.

Q: Which inhibition at 200 ppm [1] does the source give for `Cc1nc(-c2cncc(F)c2)cn1N(CC1CC1)C(=O)C(C)C` [Compound 26] here?
A: The inhibition at 200 ppm was 0 to 80%.

Q: And the inhibition at 200 ppm [2]?
A: Its inhibition at 200 ppm is 0 to 80%.

Q: Which results are given for `CCN(C(=O)CCSC)n1cc(-c2cncc(F)c2)nc1C` [Compound 25]?
A: inhibition at 200 ppm [1]: 80 to 100%; inhibition at 200 ppm [2]: 0 to 80%

Q: With `CSCCC(=O)N(C)n1cc(-c2cncc(F)c2)nc1C` [Compound 23] as the compound, how does the inhibition at 200 ppm [1] read?
A: Its inhibition at 200 ppm is 80 to 100%.

Q: And the inhibition at 200 ppm [2]?
A: The inhibition at 200 ppm was 80 to 100%.

Q: Which results are given for `Cc1nc(-c2cccnc2)cn1N(C)C(=O)C(C)C` [Compound 1]?
A: inhibition at 200 ppm [1]: 0 to 80%; melting point: 122 to 125 °C; inhibition at 200 ppm [2]: 0 to 80%

Q: Which inhibition at 200 ppm [1] does the source give for `CSCCC(=O)N(C)n1cc(-c2cccnc2)nc1C` [Compound 10] here?
A: Its inhibition at 200 ppm is 80 to 100%.

Q: What about the inhibition at 200 ppm [2] of the same compound?
A: The inhibition at 200 ppm was 0 to 80%.

Q: With `CSCC(C)(C)C(=O)N(C)n1cc(-c2cccnc2)nc1C` [Compound 16] as the compound, how does the inhibition at 200 ppm [1] read?
A: Its inhibition at 200 ppm is less than 0%.

Q: And the inhibition at 200 ppm [2]?
A: Its inhibition at 200 ppm is less than 0%.

Q: For `Cc1nc(-c2cccnc2)cn1N(CC1CC1)C(=O)C(C)C` [Compound 20], which inhibition at 200 ppm [1] is on record?
A: Its inhibition at 200 ppm is less than 0%.

Q: What about the inhibition at 200 ppm [2] of the same compound?
A: The inhibition at 200 ppm was 0 to 80%.

Q: With `Cc1nc(-c2cncc(F)c2)cn1N(C)C(=O)C(C)C` [Compound 22] as the compound, how does the inhibition at 200 ppm [1] read?
A: Its inhibition at 200 ppm is 80 to 100%.

Q: And the inhibition at 200 ppm [2]?
A: The inhibition at 200 ppm was 0 to 80%.

Q: Which inhibition at 200 ppm [1] does the source give for `CCN(C(=O)OC(C)(C)C)n1cc(-c2cccnc2)nc1Cl` [Compound 41, tert-Butyl (2-chloro-4-(pyridin-3-yl)-1H-imidazol-1-yl)(ethyl)carbamate] here?
A: The inhibition at 200 ppm was 80 to 100%.

Q: And the inhibition at 200 ppm [2]?
A: Its inhibition at 200 ppm is 0 to 80%.

Q: Which results are given for `CCN(C(=O)C(C)C)n1cc(-c2cncc(F)c2)nc1C` [Compound 24]?
A: inhibition at 200 ppm [1]: 0 to 80%; inhibition at 200 ppm [2]: 0 to 80%

Q: Which results are given for `CCN(C(=O)C(C)(C)C)n1cc(-c2cccnc2)nc1C` [Compound 13]?
A: inhibition at 200 ppm [1]: 0 to 80%; inhibition at 200 ppm [2]: < 0%

Q: For `CC(=O)Nn1cc(-c2cccnc2)nc1Cl` [Compound 39, N-(2-Chloro-4-(pyridin-3-yl)-1H-imidazol-1-yl)acetamide], which melting point is on record?
A: Its melting point is 129 to 139 °C.

Q: With `Cc1nc(-c2cccnc2)cn1N(CC1CC1)C(=O)CC(F)(F)F` [Compound 12] as the compound, how does the inhibition at 200 ppm [1] read?
A: The inhibition at 200 ppm was 80 to 100%.

Q: And the inhibition at 200 ppm [2]?
A: The inhibition at 200 ppm was less than 0%.

Q: With `CCCCC(=O)N(CC1CC1)n1cc(-c2cccnc2)nc1C` [Compound 15] as the compound, how does the inhibition at 200 ppm [1] read?
A: Its inhibition at 200 ppm is 80 to 100%.

Q: And the inhibition at 200 ppm [2]?
A: Its inhibition at 200 ppm is 0 to 80%.
